This experiment deals with T1, PIK3CA (Homo sapiens, UniProt P42336).
T1 construct: endogenous in cells; host or cells: Jurkat cell lysate
T1 sequence (P42336 whole entry): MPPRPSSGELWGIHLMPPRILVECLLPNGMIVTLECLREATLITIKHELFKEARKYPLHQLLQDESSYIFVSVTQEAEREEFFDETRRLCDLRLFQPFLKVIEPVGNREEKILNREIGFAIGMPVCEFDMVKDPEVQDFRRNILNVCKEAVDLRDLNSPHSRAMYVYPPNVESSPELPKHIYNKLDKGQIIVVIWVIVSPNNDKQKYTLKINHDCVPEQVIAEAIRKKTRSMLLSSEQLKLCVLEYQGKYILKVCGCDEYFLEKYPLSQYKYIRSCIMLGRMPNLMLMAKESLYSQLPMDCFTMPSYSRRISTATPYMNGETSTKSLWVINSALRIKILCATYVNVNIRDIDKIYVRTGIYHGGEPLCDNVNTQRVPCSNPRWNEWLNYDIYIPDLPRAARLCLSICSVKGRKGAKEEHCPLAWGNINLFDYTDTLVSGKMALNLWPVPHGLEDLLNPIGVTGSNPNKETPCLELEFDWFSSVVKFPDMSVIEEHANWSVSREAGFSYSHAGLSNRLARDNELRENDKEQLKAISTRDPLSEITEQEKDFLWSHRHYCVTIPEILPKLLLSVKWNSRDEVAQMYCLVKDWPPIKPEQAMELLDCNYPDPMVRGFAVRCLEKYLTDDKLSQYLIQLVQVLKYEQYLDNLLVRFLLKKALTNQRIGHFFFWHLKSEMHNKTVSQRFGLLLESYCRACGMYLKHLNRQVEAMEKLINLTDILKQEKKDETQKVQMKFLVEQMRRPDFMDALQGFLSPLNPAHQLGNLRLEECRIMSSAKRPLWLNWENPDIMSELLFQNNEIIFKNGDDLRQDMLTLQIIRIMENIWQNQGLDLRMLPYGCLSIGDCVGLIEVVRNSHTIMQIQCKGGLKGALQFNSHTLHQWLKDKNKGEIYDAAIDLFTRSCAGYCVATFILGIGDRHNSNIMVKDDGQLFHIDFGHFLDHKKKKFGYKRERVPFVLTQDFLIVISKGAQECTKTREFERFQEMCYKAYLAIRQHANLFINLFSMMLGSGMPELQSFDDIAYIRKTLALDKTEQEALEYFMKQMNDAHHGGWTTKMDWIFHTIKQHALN
T1 sequence (P27986 whole entry partner): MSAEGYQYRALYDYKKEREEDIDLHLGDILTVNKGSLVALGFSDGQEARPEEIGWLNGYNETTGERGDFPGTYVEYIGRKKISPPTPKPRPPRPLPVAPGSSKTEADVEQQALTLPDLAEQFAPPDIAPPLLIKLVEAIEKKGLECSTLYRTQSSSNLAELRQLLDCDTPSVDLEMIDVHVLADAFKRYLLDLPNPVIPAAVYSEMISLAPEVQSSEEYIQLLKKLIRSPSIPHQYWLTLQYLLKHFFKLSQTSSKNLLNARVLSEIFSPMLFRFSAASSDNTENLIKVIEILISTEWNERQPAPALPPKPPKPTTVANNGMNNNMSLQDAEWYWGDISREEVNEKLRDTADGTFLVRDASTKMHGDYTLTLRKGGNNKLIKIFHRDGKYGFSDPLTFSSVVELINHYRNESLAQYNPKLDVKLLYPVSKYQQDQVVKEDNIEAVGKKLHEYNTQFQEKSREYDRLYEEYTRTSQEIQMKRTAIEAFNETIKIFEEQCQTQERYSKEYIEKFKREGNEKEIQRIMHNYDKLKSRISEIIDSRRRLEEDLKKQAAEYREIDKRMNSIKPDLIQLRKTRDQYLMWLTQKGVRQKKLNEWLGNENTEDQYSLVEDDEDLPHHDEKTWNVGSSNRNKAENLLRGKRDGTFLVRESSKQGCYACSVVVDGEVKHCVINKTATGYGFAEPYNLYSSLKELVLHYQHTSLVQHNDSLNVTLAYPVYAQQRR
Briefly: In vitro ELISA target engagement assay for PIK3CA in Jurkat cellular lysate (competition with PIK3CA Biotin Probe). Particulars: 1 hour at rt, then 500 nM PIK3CA Biotin Probe, read-out: Elisa Target Engagement Assay (TE50). The class given is binding. As to the method:
Example 3. In Vitro ELISA Target Engagement Assay for […] Engagement of compounds on PIK3CA were assessed in Jurkat cellular lysate via a sandwich ELISA. A solution of PIK3CA Biotin Probe was generated at 10 mM and used in the biological testing. […] Treatment Protocol: Jurkat cellular lysate was generated from frozen cell pellets. Cells were thawed on ice and resuspended in cold Dulbecco's phosphate buffered saline (DPBS) (12 mL/300 e^6 cells) then lysed by probe sonication (12×3 second pulses). Jurkat lysate was plated (50 μl/well) in Armadillo 96 well PCR plates (Thermo Fisher catalog number AB2396). The lysate was treated with serial dilutions of test compounds up to 200 μM and incubated for 1 hour at rt. Following compound incubation, PIK3CA Biotin Probe was added to a final concentration of 500 nM, and lysate was mixed by pipetting gently and incubated for an additional 1 hour at rt. The mixture was then diluted in 75 μL Dilution buffer. The mixture was centrifuged for 5 minutes at 4122 g and stored at −80° C. until ELISA TE detection. ELISA TE Detection: Quantification of PIK3CA TE was initiated by coating of the ELISA plate (Thermo Scientific White 384-Well Immuno plates; Thermo Fisher catalog number 460372). The capture antibody was diluted in plating buffer (1:83) and added to the ELISA plate, 20 μl/well, overnight at 4° C. The plate was then washed twice with PBST, 100 μl/well, and blocked with addition of blocking buffer (100 μl/well, 1 hour at rt). During block, treated and probe labeled lysate was thawed. After Block, the block buffer was removed and the thawed lysate was added to the ELISA plate, 30 μl/well, for 1.5 hours at rt. Following lysate incubation, the assay plate was washed 3 times with PBST, 100 μl/well. The Neutravidin-HRP was then diluted (1:500 in dilution buffer) and added for 1 hour at rt, 20 μl/well. Following incubation, the assay plate was washed 4 times with PBST, 100 μl/well, HRP substrate was added to plate, 20 μl/well and luminescence signal was read (Clariostar Plate Reader). For each compound the potency of target engagement (TE50) was determined using Graphpad Prism.
For the molecule `COc1ccc(S(=O)(=O)N2CC[C@@](F)(C(=O)N[C@H](C)/C=C\S(C)(=O)=O)C[C@@H]2C)c(-c2ccccc2Cl)c1` (single isomer, unassigned) [Compound 148, (2*S,4*S)-1-((2′-chloro-5-methoxy-[1,1′-biphenyl]-2-yl)sulfonyl)-4-fluoro-2-methyl-N-((R,Z)-4-(methylsulfonyl)but-3-en-2-yl)piperidine-4-carboxamide], the IC50 was determined as 600 nM.
Then `C[C@H](/C=C\S(C)(=O)=O)NC(=O)C1(F)CCN(C(=O)[C@H]2COC(C)(C)C[C@@H]2c2ccccc2Cl)CC1` (racemic) [Compound 256, 1-((3*R,4*S)-4-(2-chlorophenyl)-6,6-dimethyltetrahydro-2H-pyran-3-carbonyl)-4-fluoro-N-((R,Z)-4-(methylsulfonyl)but-3-en-2-yl)piperidine-4-carboxamide], with 780 nM; and `C[C@@H]1C[C@](F)(C(=O)NC/C=C\C(=O)N2CC(F)(F)C2)CCN1S(=O)(=O)c1ccc(C#N)cc1-c1ccccc1Cl` [Compound 292, (2R,4S)-1-((2′-chloro-5-cyano-[1,1′-biphenyl]-2-yl)sulfonyl)-N-((Z)-4-(3,3-difluoroazetidin-1-yl)-4-oxobut-2-en-1-yl)-4-fluoro-2-methylpiperidine-4-carboxamide], with 160 nM.
Then `CC(C)OC(=O)N1C[C@H](C(=O)N2CCC(F)(C(=O)N[C@H](C)/C=C\S(C)(=O)=O)CC2)[C@H](c2ccccc2Cl)C1` [Compound 159, isopropyl(3R,4R)-3-(2-chlorophenyl)-4-(4-fluoro-4-(((R,Z)-4-(methylsulfonyl)but-3-en-2-yl)carbamoyl)piperidine-1-carbonyl)pyrrolidine-1-carboxylate], with 980 nM; and `C[C@H](/C=C/C(=O)N1CC(F)(F)C1)NC(=O)C1(F)CCN(S(=O)(=O)c2ccc(C#N)cc2-c2ccccc2Cl)CC1` [Compound 136, (R,E)-1-((2′-chloro-5-cyano-[1,1′-biphenyl]-2-yl)sulfonyl)-N-(5-(3,3-difluoroazetidin-1-yl)-5-oxopent-3-en-2-yl)-4-fluoropiperidine-4-carboxamide], with 190 nM.
Then `COc1ccc(S(=O)(=O)N2CC[C@@](F)(C(=O)NC/C=C\C(=O)N3CC(F)(F)C3)C[C@H]2C)c(-c2ccccc2Cl)c1` [Compound 288, (2R,4S)-1-((2′-chloro-5-methoxy-[1,1′-biphenyl]-2-yl)sulfonyl)-N-((Z)-4-(3,3-difluoroazetidin-1-yl)-4-oxobut-2-en-1-yl)-4-fluoro-2-methylpiperidine-4-carboxamide], with 490 nM; and `C[C@H](/C=C\S(C)(=O)=O)NC(=O)C1(F)CCN(C(=O)[C@H]2CN(C(=O)c3ccccc3)C[C@H]2c2ccccc2Cl)CC1` [Compound 162, 1-((3R,4R)-1-benzoyl-4-(2-chlorophenyl)pyrrolidine-3-carbonyl)-4-fluoro-N-((R,Z)-4-(methylsulfonyl)but-3-en-2-yl)piperidine-4-carboxamide], with 770 nM.
For `C[C@H](/C=C\S(C)(=O)=O)NC(=O)C1(F)CCN(S(=O)(=O)c2ccc(Br)cc2-c2cccc(Cl)c2)CC1` [Compound 55, (R,Z)-1-((5-bromo-3′-chloro-[1,1′-biphenyl]-2-yl)sulfonyl)-4-fluoro-N-(4-(methylsulfonyl)but-3-en-2-yl)piperidine-4-carboxamide], the IC50 is 710 nM.
Consider `N#C/C=C/CNC(=O)C1(F)CCN(S(=O)(=O)c2cnc(Cl)cc2-c2ccccc2Cl)CC1` [Compound 232, (E)-1-((6-chloro-4-(2-chlorophenyl)pyridin-3-yl)sulfonyl)-N-(3-cyanoallyl)-4-fluoropiperidine-4-carboxamide], for which the IC50 is 520 nM.
The value for `C[C@@H]1C[C@](F)(C(=O)NC/C=C\C(=O)N2CC(F)(F)C2)CCN1S(=O)(=O)c1ccc(C(F)(F)F)cc1-c1ccccc1Cl` [Compound 290, (2R,4S)-1-((2′-chloro-5-(trifluoromethyl)-[1,1′-biphenyl]-2-yl)sulfonyl)-N-((Z)-4-(3,3-difluoroazetidin-1-yl)-4-oxobut-2-en-1-yl)-4-fluoro-2-methylpiperidine-4-carboxamide] was 1000 nM; that for `C[C@H](/C=C\S(C)(=O)=O)NC(=O)C1(F)CCN(C(=O)[C@H]2CN(C3CC3)C[C@H]2c2ccccc2Cl)CC1` [Compound 304, 1-((3R,4R)-4-(2-chlorophenyl)-1-cyclopropylpyrrolidine-3-carbonyl)-4-fluoro-N-((R,Z)-4-(methylsulfonyl)but-3-en-2-yl)piperidine-4-carboxamide] was 740 nM; that for `C[C@H](/C=C/C(=O)N1CC(F)(F)C1)NC(=O)[C@]1(F)CCN(S(=O)(=O)c2cnc(C(F)(F)F)cc2-c2ccccc2Cl)[C@H](C)C1` [Compound 215, (2R,4S)-1-((4-(2-chlorophenyl)-6-(trifluoromethyl)pyridin-3-yl)sulfonyl)-N-((R,E)-5-(3,3-difluoroazetidin-1-yl)-5-oxopent-3-en-2-yl)-4-fluoro-2-methylpiperidine-4-carboxamide] was 490 nM.
Then `COc1ccc(S(=O)(=O)N2CCC(OC)(C(=O)N[C@H](C)/C=C\S(C)(=O)=O)CC2)c(-c2ccccc2Cl)c1` [Compound 146, 1-[2-(2-chlorophenyl)-4-methoxy-phenyl]sulfonyl-4-methoxy-N—[(Z,1R)-1-methyl-3-methylsulfonyl-allyl]piperidine-4-carboxamide], with 610 nM; and `C[C@@H]1C[C@](F)(C(=O)NC/C=C\C(=O)N2CC(F)(F)C2)CCN1S(=O)(=O)c1ccc(Br)cc1-c1ccccc1Cl` [Compound 291, (2R,4S)-1-((5-bromo-2′-chloro-[1,1′-biphenyl]-2-yl)sulfonyl)-N-((Z)-4-(3,3-difluoroazetidin-1-yl)-4-oxobut-2-en-1-yl)-4-fluoro-2-methylpiperidine-4-carboxamide], with 320 nM.
Then `Cc1c(F)cccc1-c1cc(Br)ccc1S(=O)(=O)N1CCC(F)(C(=O)N[C@H](C)/C=C\S(C)(=O)=O)CC1` [Compound 56, (R,Z)-1-((5-bromo-3′-fluoro-2′-methyl-[1,1′-biphenyl]-2-yl)sulfonyl)-4-fluoro-N-(4-(methylsulfonyl)but-3-en-2-yl)piperidine-4-carboxamide], with 150 nM.
As for `C[C@H](/C=C\S(C)(=O)=O)NC(=O)C1(F)CCN(C(=O)[C@H]2CN(CC(F)(F)F)C[C@H]2c2ccccc2Cl)CC1` [Compound 163, 1-((3R,4R)-4-(2-chlorophenyl)-1-(2,2,2-trifluoroethyl)pyrrolidine-3-carbonyl)-4-fluoro-N-((R,Z)-4-(methylsulfonyl)but-3-en-2-yl)piperidine-4-carboxamide], the IC50 came to 500 nM.
Then `C[C@H](/C=C\S(C)(=O)=O)NC(=O)C1(F)CCN(S(=O)(=O)c2ccc(Br)cc2-c2ccccc2)CC1` [Compound 57, (R,Z)-1-((5-bromo-[1,1′-biphenyl]-2-yl)sulfonyl)-4-fluoro-N-(4-(methylsulfonyl)but-3-en-2-yl)piperidine-4-carboxamide], with 580 nM.
Then `Cc1cccc(Cl)c1-c1cc(Br)ccc1S(=O)(=O)N1CCC(F)(C(=O)N[C@H](C)/C=C\S(C)(=O)=O)CC1` [Compound 60, 1-((5-bromo-2′-chloro-6′-methyl-[1,1′-biphenyl]-2-yl)sulfonyl)-4-fluoro-N-((R,Z)-4-(methylsulfonyl)but-3-en-2-yl)piperidine-4-carboxamide], with 810 nM; and `C[C@H](/C=C/C(=O)N1CC(F)(F)C1)NC(=O)[C@]1(F)CCN(S(=O)(=O)c2ccc(C#N)cc2-c2ccccc2Cl)[C@H](C)C1` [Compound 154, (2R,4S)-1-((2′-chloro-5-cyano-[1,1′-biphenyl]-2-yl)sulfonyl)-N-((R,E)-5-(3,3-difluoroazetidin-1-yl)-5-oxopent-3-en-2-yl)-4-fluoro-2-methylpiperidine-4-carboxamide], with 190 nM; and `C[C@H](/C=C\S(C)(=O)=O)NC(=O)[C@]1(F)CCN(S(=O)(=O)c2cnc(C(F)(F)F)cc2-c2ccccc2Cl)[C@H](C)C1` [Compound 214, (2R,4S)-1-((4-(2-chlorophenyl)-6-(trifluoromethyl)pyridin-3-yl)sulfonyl)-4-fluoro-2-methyl-N-((R,Z)-4-(methylsulfonyl)but-3-en-2-yl)piperidine-4-carboxamide], with 220 nM.
The value for `COc1ccc(S(=O)(=O)N2CC[C@](F)(C(=O)N[C@H](C)/C=C\S(C)(=O)=O)C[C@H]2C)c(-c2ccccc2Cl)c1` (single isomer, unassigned) [Compound 147, (2*R,4*R)-1-((2′-chloro-5-methoxy-[1,1′-biphenyl]-2-yl)sulfonyl)-4-fluoro-2-methyl-N-((R,Z)-4-(methylsulfonyl)but-3-en-2-yl)piperidine-4-carboxamide] was 390 nM.
